Measurements reported in paper PMC4167909 (Analytical biochemistry, 2014).

Key:
OXA-24/40 [1] = target: T1, OXA-24/40 (Acinetobacter baumannii, UniProt Q8RLA6); experiment: kinetic competition with ampicillin as reporter substrate; type: biochemical
OXA-24/40 [2] = target: OXA-24/40 (Acinetobacter baumannii, UniProt Q8RLA6, V130D); experiment: SDS-PAGE fluorescent acyl-enzyme detection, single-turnover conditions; type: binding
OXA-24/40 [3] = target: T1, OXA-24/40; experiment: competitive inhibition of ampicillin hydrolysis; type: biochemical

SMILES	Ki (OXA-24/40 [1]) [nM]	SDS-PAGE fluorescent acyl-enzyme detection, single-turnover conditions (OXA-24/40 [2])	Ki (OXA-24/40 [3]) [nM]
C[C@@H](O)[C@H]1C(=O)N2C(C(=O)O)=C(S[C@@H]3CN[C@H](C(=O)N(C)C)C3)[C@H](C)[C@H]12 [meropenem]	18	–	–
C[C@@H](O)[C@H]1C(=O)N2C(C(=O)O)=C(S[C@H]3C[C@@H](C(=O)N(C)C)N(C(=S)Nc4ccc5c(c4)C(=O)OC54c5ccc(O)cc5Oc5cc(O)ccc54)C3)[C@H](C)[C@H]12 [FM, fluorescein-meropenem]	–	All Val130 substitutions showed some degree of fluorescence labeling, but the Val130Asp, Val130Thr and Val130Asn substitutions most severely reduced deacylation	43
